# In US20240343819A1, “METHODS OF TREATING MULTIPLE MYELOMA” (Seagen Inc., priority 2021, published 2024):
# “And” between values parts separate entries of the source, which are not always exact repeats. Equal entries are not always repeated.
# How the values were obtained:
# Multiple myeloma cells [1] = assay: BCMA expression after nirogacestat incubation; format: cell-based; conditions: 0.2 μM nirogacestat, 24 hours, vs without
# Text: (§1) These pre-clinical data supported the combination of SEA-BCMA with nirogacestat in clinical studies.
# U266 = assay: BCMA expression by flow cytometry after Nirogacestat incubation; format: cell-based; conditions: 0.2 μM Nirogacestat, 24 hrs
# Multiple myeloma cells [2] = assay: ADCC with NK effector cells enriched from normal donor PBMC; format: cell-based; conditions: nirogacestat treated multiple myeloma cells combined with NK effector cells
# Text: as §1
# Molp-8 MM target cells = assay: ADCC 51Cr release assay with donor NK cells; format: cell-based; conditions: SEA-BCMA titrations, 0.2 μM Nirogacestat vs without, NK:target 10:1, 4h, FcγRIII V/V donor
# Method: Whether the enhanced FcγRIII signaling translated to increased lysis of MM target cells by SEA-BCMA was determined. Molp-8 MM target cells were incubated with and without 0.2 μM Nirogacestat (purchased from SelleckChem) for 24 hrs. Cells were then Na2 [^51Cr] O4 labeled and added to titrations of SEA-BCMA, or isotype antibody control. Effector cells, NK cells enriched from normal donor PBMC, were added at an effector-to-target cell ratio of 10:1 (50,000:5000). Donor NK cells were of the high affinity FcγRIII V/V genotype. The combination of antibodies, NK cells and target cells were incubated for 4h at 37° C. with and without Nirogacestat. The radioactivity released into the culture supernatant of lysed target cells was then measured and the percent specific cell lysis calculated. […] This is the primary of mechanism of action of SEA-BCMA and translates to specific enhanced anti-MM lysis. It is expected that this will translate to improvements in anti-MM activity in the clinic when SEA-BCMA is combined with GSIs.
# [3] = tested on: BCMA-expressing NCI-H929 cells; assay: NF-κB p65 activity ELISA of nuclear extract (TransAM NFκB Chemi p65); format: cell-based
# Method: The secondary mechanism of action of SEA-BCMA is to block BCMA proliferative cell signaling. Increased BCMA from GSI treatment is expected to induce increased BCMA signaling. Therefore, the block of this enhanced signaling by SEA-BCMA was tested. BCMA-expressing NCI-H929 cells were serum-starved with and without 0.2 μM Nirogacestat (purchased from SelleckChem) for 16 hrs. Cells were then bound with and without 20 μg/mL SEA-BCMA and incubated with and without 1 μg/ml recombinant human APRIL (R&D Systems) for 20 minutes at 37° C. in the presence or absence of 0.2 μM Nirogacestat. 1 μg of nuclear extract was assayed in duplicate for NF-κB p65 activity by ELISA (TransAM NFκB Chemi p65, Active Motif).
# [4] = 100 mg BID dose; cited from earlier work
# patients = conditions: cited from earlier work
# FcγRIII = FcγRIII (Homo sapiens, UniProt P08637); assay: FcγRIII binding affinity versus fucosylated anti-BCMA antibodies; conditions: in comparison to fucosylated anti-BCMA antibodies
# FcγRIII, sequence (P08637 17-254): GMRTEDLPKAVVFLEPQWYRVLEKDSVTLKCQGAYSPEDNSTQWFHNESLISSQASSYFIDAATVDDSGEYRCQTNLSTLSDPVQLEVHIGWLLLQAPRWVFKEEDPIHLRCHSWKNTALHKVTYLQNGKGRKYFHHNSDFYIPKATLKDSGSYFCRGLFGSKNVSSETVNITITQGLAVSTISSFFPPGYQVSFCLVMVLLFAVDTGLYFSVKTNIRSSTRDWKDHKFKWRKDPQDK
# NCI-H929 cells [5] = assay: BCMA expression by flow cytometry after GSI incubation; format: cell-based; conditions: 1 μM DAPT, 24 hrs, vs without
# Molp-8 cells [6] = assay: as above; format: cell-based; conditions: 1 μM DAPT, 24 hrs, vs without
# Molp-8 cells [7] = assay: FcγRIII signaling surrogate assay (Promega ADCC reporter bioassay, CD16A-Jurkat effector cells); format: cell-based; conditions: antibody dose titrations +/- GSI (DAPT), 6:1 effector-to-target ratio, overnight
# Method: (§2) NCI-H929 or Molp-8 MM target cells were incubated with and without 1 μM DAPT for 24 hrs. […] FcγRIII signaling was determined using a surrogate assay as manufacturer describes (Promega ADCC reporter bioassay cat #G9302). Cells were bound with antibody dose titrations+/−GSI for 30 minutes at 37° C. CD16A-Jurkat effector cells were then added with a 6:1 effector-to-target cell ratio. After an overnight incubation, the assay was developed with Bio-Glo and relative luminescence units (RLU) were measured on an Envision plate reader. […] Enhanced signaling is the first step in the primary mechanism of action of SEA-BCMA. This signaling can translate to increased anti-MM cell lysis through ADCC.
# NCI-H929 cells [8] = assay: as above; format: cell-based; conditions: antibody dose titrations +/- GSI (DAPT), 6:1 effector-to-target ratio, overnight
# Method: as §2
# [9] = patients receiving nirogacestat
# Method for patients with RRMM: This study evaluated the safety and antitumor activity of SEA-BCMA in patients with RRMM.
# The monotherapy dose-escalation portion of the trial was conducted in approximately 25 patients.
# Enrollment in this study occurred on a cohort-by-cohort basis. Multiple cohorts were treated at each dose level, with a maximum of 4 patients treated per cohort. Decisions on dose escalation and subsequent cohort size were made in consultation with the safety monitoring committee (SMC) after completion of each cohort. […] In addition, as a precaution, for the first 2 patients in the study there was a 72-hour observation period before the next patient can be dosed. At dose levels above Dose Level 1, a 24-hour observation period was required after the first patient received their first dose of SEA-BCMA, prior to dosing subsequent patients at that dose level. […] Patients who were considered not evaluable for DLT during Cycle 1 were replaced. […] The MTD or optimal dose was estimated based on data from all patients across all evaluated doses.
# SEA-BCMA was initially administered once every 2 weeks (q2wk) in 4-week cycles at the planned doses shown in Table 2; a dosing interval of every 4 weeks (q4wk) was explored.
# To further characterize the safety and antitumor activity of SEA-BCMA, an expansion cohort of up to approximately 40 patients were enrolled.
# The DLT-evaluation period was the first cycle of treatment. […] In the event of a Grade 3 IRR in ≥20% of patients (i.e., 2 or more in the first 10 patients), all subsequent patients will require premedication and/or modification of infusion approach per the recommendation of the SMC.
compound,measurement,setting,value
"CCC[C@H](N[C@H]1CCc2cc(F)cc(F)c2C1)C(=O)Nc1cn(C(C)(C)CNCC(C)(C)C)cn1 [nirogacestat, (S)-2-(((S)-6,8-difluoro-1,2,3,4-tetrahydronaphthalen-2-yl)amino)-N-(1-(2-methyl-1-(neopentylamino)propan-2-yl)-1H-imidazol-4-yl)pentanamide]",BCMA expression,Multiple myeloma cells [1],increased BCMA expression
same,BCMA expression,U266,increased BCMA expression
same,ADCC,Multiple myeloma cells [2],increased ADCC
same,ADCC (percent specific cell lysis),Molp-8 MM target cells,Increased ADCC
same,NF-κB p65 signaling (RLU),"[3]; 0.2 μM Nirogacestat 16 hrs serum-starved, +/- 1 μg/ml APRIL 20 minutes",increased NF-κB signaling
same,Cmin at steady-state,[4],232 ng/mL and 471 nM
same,Events of diarrhea,patients; [9],commonly reported
same,Events of skin rash,patients; [9],reported
same,Follicular cysts,"patients; phase 2 study in desmoid patients conducted by the NCI (O'Sullivan Coyne, 2018)",observed
"SEA-BCMA: non-fucosylated monoclonal anti-BCMA antibody, heavy chain SEQ ID NO: 13, light chain SEQ ID NO: 15",Block of NF-κB signaling increased by Nirogacestat,"[3]; 20 μg/mL SEA-BCMA, 0.2 μM Nirogacestat, +/- 1 μg/ml APRIL",partially blocked
same,FcγRIII binding affinity,FcγRIII,enhanced
same,Delayed-onset infusion-related reactions (IRRs),patients with RRMM; dose escalation cohort,no instances
same,Safety profile at high doses,"patients with RRMM; high doses, e.g. 800 mg or 1600 mg per dose, initial results",tolerable safety profile
same,MTD in dose escalation,"patients with RRMM; human, in vivo",without exceeding MTD
C[C@H](NC(=O)Cc1cc(F)cc(F)c1)C(=O)N[C@H](C(=O)OC(C)(C)C)c1ccccc1 [DAPT],BCMA expression,NCI-H929 cells [5],increased BCMA expression
same,BCMA expression,Molp-8 cells [6],increased BCMA expression
same,FcγRIII signaling,Molp-8 cells [7],increased FcγRIII signaling
same,FcγRIII signaling,NCI-H929 cells [8],increased FcγRIII signaling
